Data reported in US20060270727A1, “Small molecule therapeutics and uses therefor” (priority 2005, published 2006).

Columns and labels:
[1] = test system: mismatch DNA sequence 5′-GGAGGAGGTGGAGGAGGA-3′ from the erbB2 (Her2-neu) promoter; experiment: DNase I footprinting on mismatch DNA; type: binding, human; conditions: polyamide concentrations up to 100 nM
Method: Two additional molecules, FA5 [(ImPyβ)4ImβDp] and FA6 [(ImPyβ)5ImβDp], were synthesized in order to target longer regions of GAA repeats in duplex DNA; i.e., (AAG)5 (SEQ ID NO: ______) and (AAG)6 (SEQ ID NO: ______) respectively. […] As another test for sequence specificity, footprinting experiments with FA1 and FA3 and a radiolabeled DNA fragment containing a mismatch DNA sequence 5′-GGAGGAGGTGGAGGAGGA-3′ (SEQ ID NO: ______) were performed.
The first oligonucleotide shown was radiolabeled as above to generate a PCR product labeled on the GAA strand. A 150 bp PCR product containing a (GGA•TCC)6 mismatch sequence was derived from the erbB2 (Her2-neu) promoter in human genomic DNA with the following oligonucleotides: […]

[2] = test system: duplex DNA having GAA repeats ((GAA)33); experiment: Quantitative DNase I footprinting on extended GAA repeat DNA; type: binding
Text: The term “mismatch” in the context of polyamides or linkable units refers to replacement of one or more linkable units in a polyamide such that recognition for a specific duplex DNA pair is energetically less favorable (Dervan & Edelson, Id.; Urbach & Dervan, Id). The term “match” in the context of polyamide binding to DNA refers to a linkable unit selected according to the polyamide recognition rules of Urbach & Dervan (Id). or Dervan & Edelson (Id).
where the second oligonucleotide was labeled with γ-^32P ATP and polynucleotide kinase, using standard procedures, to generate a PCR product labeled on the GAA strand. A 204 bp singly end-labeled PCR product was derived from plasmid pMP142 DNA, containing 33 GAA repeats (Ohshima et al., Id.), with following oligonucleotides: […]

CN(C)CCCNC(=O)CCNC(=O)c1nc(NC(=O)CCNC(=O)c2cc(NC(=O)c3nc(NC(=O)CCNC(=O)c4cc(NC(=O)c5nccn5C)cn4C)cn3C)cn2C)cn1C [FA1, ImPyβImPyβImβDp]
binding to mismatch DNA sequence [1]: Neither FA1 nor FA3 bound this DNA sequence
concentration at 50% occupancy of the DNA ([2]; equals target site concentration in the reaction): ~1.5 nM
affinity for extended GAA repeats ([2]; several molecules bound per DNA molecule): no loss in affinity
